Data taken from PubChem BioAssay (NCI).
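Dose response: 5 concentrations. Exposure: 48 h. Format: 96-well plates. Endpoint: linear interpolation; highest concentration if not reached. GI50 marks 50% less growth. TGI denotes the concentration required for complete inhibition of growth.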

Columns and labels:
Experiment in all cases: NCI anticancer screen, dose series, 48 h
[1] = tested on: HCT-15 colon
[2] = tested on: IGROV1 ovarian
[3] = tested on: M14 melanoma
[4] = tested on: EKVX NSCLC
[5] = tested on: HT29 colon
[6] = tested on: MDA-MB-231 breast
[7] = tested on: UACC-257 melanoma
[8] = tested on: 786-0 renal
[9] = tested on: HL-60(TB) leukemia
[10] = tested on: SK-OV-3 ovarian
[11] = tested on: SR leukemia
[12] = tested on: U251 CNS
[13] = tested on: UACC-62 melanoma
[14] = tested on: SK-MEL-2 melanoma
[15] = tested on: T-47D breast
[16] = tested on: LOX IMVI melanoma
[17] = tested on: DU-145 prostate
[18] = tested on: K-562 leukemia
[19] = tested on: SN12C renal
[20] = tested on: NCI/ADR-RES ovarian
[21] = tested on: HS 578T breast
[22] = tested on: OVCAR-3 ovarian
[23] = tested on: SF-539 CNS
[24] = tested on: OVCAR-8 ovarian
[25] = tested on: CCRF-CEM leukemia
[26] = tested on: KM12 colon
[27] = tested on: A498 renal
[28] = tested on: HCT-116 colon
[29] = tested on: SK-MEL-28 melanoma

O=C(c1ccccc1)c1ccc(Oc2ccc([N+](=O)[O-])cc2[N+](=O)[O-])cc1
TGI [1]: > 100 µM | GI50 [2]: 2390 nM | TGI [2]: 5.61 µM | GI50 [3]: 3.09 µM | TGI [3]: 31.6 µM | GI50 [4]: 13.2 µM | TGI [4]: 38.4 µM | GI50 [5]: 4.08 µM | TGI [5]: 20.8 µM | GI50 [6]: 6.74 µM | TGI [6]: 49.9 µM | GI50 [7]: 7.05 µM | TGI [7]: 29.2 µM | GI50 [8]: 3.46 µM | TGI [8]: 15.9 µM | GI50 [9]: 2190 nM | TGI [9]: 5.89 µM | GI50 [10]: 4.09 µM | TGI [10]: 29.4 µM | GI50 [11]: 2600 nM | TGI [11]: 7.79 µM | GI50 [12]: 3.25 µM | TGI [12]: 13.3 µM | GI50 [13]: 4.1 µM | TGI [13]: 32.2 µM | GI50 [14]: 4.57 µM | TGI [14]: 22.6 µM | GI50 [15]: 2820 nM | TGI [15]: 23.5 µM | GI50 [16]: 3.06 µM | TGI [16]: 15.1 µM | GI50 [17]: 3.33 µM | TGI [17]: 12.8 µM | GI50 [18]: 2630 nM | TGI [18]: > 100 µM | GI50 [19]: 3.25 µM | TGI [19]: 19.1 µM | GI50 [20]: 4.12 µM | TGI [20]: 65.3 µM | GI50 [21]: 3.46 µM | TGI [21]: 38.7 µM | GI50 [22]: 2300 nM | TGI [22]: 5.07 µM | GI50 [23]: 2700 nM | TGI [23]: 7.32 µM | GI50 [24]: 3.39 µM | TGI [24]: 14.4 µM | GI50 [25]: 2890 nM | TGI [25]: > 100 µM | GI50 [26]: 2720 nM | TGI [26]: 7.34 µM | GI50 [27]: 11 µM | TGI [27]: 24.8 µM | GI50 [28]: 3.29 µM | TGI [28]: 26.2 µM | GI50 [29]: 7.03 µM | TGI [29]: 36.7 µM
